We go through two compounds from patent publication US9713702B2, “Methods of electric field induced delivery of compounds, compositions used in delivery, and systems of delivery” (The Board of Trustee of the Leland Stanford Junior …, priority 2011, dated 2017).

Series [1] in a line: Release study in solution: electric field triggered release from the conductive hydrogel on a platinum electrode in PBS. Type of series: physicochemical. As for the experimental part:
The triggered release capabilities of this system were firstly investigated in solution. In phosphate buffered saline (PBS, pH 7.2), a voltage of −0.5 V was applied between two platinum electrodes separated by a distance of 1 cm. The anode was coated with 100 mg of the hydrogel containing 0.25 wt % fluorescein-encapsulated PPy nanoparticles with a thickness around 0.1 cm. The resistivity of the swelled hydrogel and the PBS buffer was measured to be 5400 Ω·cm and 64 Ω·cm, respectively. Then, the electric field across the hydrogel was calculated to be approximately −4.5 V/cm. The electrical stimulus was applied for 10 seconds, which was repeated every five minutes, followed by measurements of the concentration of free fluorescein in the solution. […] For each stimulus, ˜20 ng of fluorescein was released. The voltage between the two electrodes was then set at −1.5 V (corresponding to an electric field across the hydrogel of −13.6 V/cm). […] The higher amount observed during the first stimulus may result from higher drug loading within the nanoparticles. Our interest in the practicability of this triggered release led us to perform a long-term release study over seven days. With the voltage between the two electrodes at −1.0 V (corresponding to an electric field across the hydrogel of −9.0 V/cm), the pulsed electric stimulus was applied to the conductive hydrogels for 20 s, once every 24 hr, followed by concentration measurements of free fluorescein in solution. […] In the case of daunorubicin, an electric field across the hydrogel of 4.5 V/cm (the set voltage was 0.5 V) was applied for 10 seconds every 5 minutes.
By applying voltage until no obvious drug release could be detected, the loading percentage of fluorescein and daunorubicin in PPy nanoparticles was calculated to be around 3.6 wt % and 3.2 wt %. […] Only with an electric stimulus can drugs be released on command. This represents an important advantage of our delivery system over conventional sustained release of drugs from hydrogel.
The platinum anode was firstly coated with the PLGA-PEG-PLGA polymer solution (100 mg of polymer) containing 0.25 wt % fluorescein (or daunorubicin)-encapsulated PPy nanoparticles, followed by solidification of the gel at room temperature. The PPy nanoparticles in the solidified gel was calculated to be 1 wt %. The coated platinum anode was then immersed in phosphate buffered saline (PBS, pH 7.2) together with a counter platinum electrode with a separated distance of 1 cm. For the release study in solution, specific voltages were applied between the two electrodes, followed by measurements of the concentration of released molecules by fluorescent assays.

How the values of series [2] were obtained: D-luciferin-encapsulated polypyrrole nanoparticles were synthesized the by an emulsion polymerization which could control the sizes of the nanoparticles. Luciferin served as a model molecule was incorporated in the polymer nanoparticle. […] At 4° C., 0.05 wt % of polypyrrole nanoparticles were dispersed in the water solution containing 15 wt % of poly[(D,L-lactic acid)-co-(glycolic acid)]-b-poly(ethylene oxide)-b-poly[(D,L-lactic acid)-co-(glycolic acid)] (PLGA-PEG-PLGA).
An electrical stimulus of −2.0 V/cm was applied for 10 seconds on the platinum electrodes in every 5 minutes, followed by measuring the concentration of luciferin in the solution.

Take `COc1cccc2c1C(=O)c1c(O)c3c(c(O)c1C2=O)C[C@@](O)(C(C)=O)C[C@@H]3O[C@H]1C[C@H](N)[C@H](O)[C@H](C)O1` [daunorubicin]: the “loading percentage in PPy nanoparticles” value in series [1] (calculated by applying voltage until no obvious drug release could be detected) is on record as about 3.2 wt %. In series [1] (daunorubicin-encapsulated PPy nanoparticles in hydrogel, PBS pH 7.2, 0.5 V (4.5 V/cm across hydrogel), 10 seconds every 5 minutes), the “amount of daunorubicin released upon each stimulus” value is listed as about 25 ng. For the same compound, the “release from PPy nanoparticles in hydrogel without applying voltage” value in series [1] (drug encapsulated in PPy nanoparticles in hydrogel, no electric field (control)) was “no obvious release”. For the same compound, the “sustained release from hydrogel without encapsulation in PPy nanoparticles” value in series [1] (drug in PLGA-PEG-PLGA hydrogel, not encapsulated in PPy nanoparticles, no voltage) was “most of the drugs in hydrogel were released in 4 days”.

For the compound `O=C(O)[C@H]1CSC(c2nc3ccc(O)cc3s2)=N1` [luciferin, D-luciferin], the “release of luciferin upon electric stimulus” value in series [2] (D-luciferin-encapsulated polypyrrole nanoparticles in PLGA-PEG-PLGA hydrogel, -2.0 V/cm, 10 seconds every 5 minutes) is “released by applying the electric stimulus”. In addition, the “release of luciferin without applying voltage” value in series [2] (D-luciferin-encapsulated polypyrrole nanoparticles in hydrogel, control without voltage) was “no release”.
